# Results from patent US10612094B2, “Genetic markers for engraftment of human cardiac ventricular progenitor cells” (Procella Therapeutics AB, priority 2016, dated 2020).
# Test system: human ventricular muscle organ strips
# Assay: Force generation of muscle strips from HVP-derived human muscle organ in response to electric stimulation
# Conditions: muscle strips of 5-month graft, p<0.05 compared to control
# Text: One of the critical limitations for the utility of hPSCs for studies of human cardiac biology and disease is their lack of maturity and persistence of expression of fetal isoforms. […] Animals were sacrificed and the engrafted kidneys were removed for further analysis. The 5-month human graft was a hemisphere structure with the radius of 0.4 cm (diameter of 0.8 cm). […] In addition, muscle trips taken from our mature human muscle organ generated forces (0.36±0.04 mN) in response to electric stimulation and increased their force generation after treatment with a β-adrenergic agonist isoprenaline (0.51±0.02 mN, p<0.05 compared to control). Taken together, these studies indicate that the HVPs are capable of generating a fully functional, mature human ventricular muscle organ in vivo via a cell autonomous pathway, i.e., without the addition of other cells, genes, matrix proteins, or biomaterials.
compound,measurement,value
CC(C)NCC(O)c1ccc(O)c(O)c1 (stereo not shown) [isoprenaline],force generation after treatment with β-adrenergic agonist,0.51±0.02 mN
